Test results reported in US10227331B2 (priority 2015, dated 2019).

Tests used:
[1] = molecular target: VIM-1 (Pseudomonas aeruginosa (strain ATCC 15692 / DSM 22644 / CIP 104116 / JCM 14847 / LMG 12228 / 1C / PRS 101 / PAO1), UniProt A0A0F7KYQ8); experiment: biochemical; conditions: CCF2-FA substrate, 2 hours at 25° C
Procedure, shortened: (§1)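 Two-hour, 25° C incubation of enzyme with inhibitor and CCF2-FA (7-hydroxycoumarin–cephalosporin–fluorescein). Fluorescence read-out; IC50 via 4-parameter fit.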

[2] = tested on: P. aeruginosa expressing IMP-1, efflux+ (MB9798); assay type: cell-based, Pseudomonas aeruginosa; conditions: for P. aeruginosa expressing IMP-1, efflux+ (MB9798) MITC95: imipenem at 2 μg/mL, in the presence of a class A, C, D serine β-lactamase inhibitor closely related to relebactam; for Efflux ratio: ratio MITC95 PA_9798/MITC95 PA_9799
From the text: (§2) The strain background is Pseudomonas aeruginosa PAO1.

[3] = molecular target: NDM-1 (Klebsiella pneumoniae, UniProt C7C422); experiment: biochemical; assay type: biochemical; conditions: CCF2-FA substrate, 2 hours at 25° C; read-out: NDM-1 IC50
NDM-1, sequence (C7C422 whole entry, looked up, species assumed): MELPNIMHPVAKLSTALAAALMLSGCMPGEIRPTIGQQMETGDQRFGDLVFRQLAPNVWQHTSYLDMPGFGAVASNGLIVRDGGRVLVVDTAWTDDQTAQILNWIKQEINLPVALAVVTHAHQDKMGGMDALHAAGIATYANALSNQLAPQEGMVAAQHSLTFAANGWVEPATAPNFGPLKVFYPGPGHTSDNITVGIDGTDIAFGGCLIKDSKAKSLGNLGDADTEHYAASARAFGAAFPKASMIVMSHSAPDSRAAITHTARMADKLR
Procedure, shortened: as §1

[4] = molecular target: IMP-1 (Serratia marcescens, UniProt P52699); experiment: biochemical; assay type: biochemical; conditions: CCF2-FA substrate, 2 hours at 25° C; read-out: IMP-1 IC50
IMP-1, sequence (P52699 whole entry, looked up, species assumed): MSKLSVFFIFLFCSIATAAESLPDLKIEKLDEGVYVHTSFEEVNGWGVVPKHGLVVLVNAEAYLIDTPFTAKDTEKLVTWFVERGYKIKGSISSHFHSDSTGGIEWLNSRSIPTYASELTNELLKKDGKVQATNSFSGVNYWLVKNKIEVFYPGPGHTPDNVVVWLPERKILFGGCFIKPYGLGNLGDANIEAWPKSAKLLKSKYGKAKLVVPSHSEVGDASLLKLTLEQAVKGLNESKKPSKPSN
Procedure, shortened: as §1

[5] = tested on: P. aeruginosa expressing IMP-1, efflux− (MB9799); experiment: Efflux: concentration of MBL inhibitor which restores susceptibility to imipenem; assay type: cell-based, Pseudomonas aeruginosa; conditions: imipenem at 2 μg/mL, in the presence of a class A, C, D serine β-lactamase inhibitor closely related to relebactam
From the text: as §2

[6] = tested on: Serratia marcescens expressing IMP-1 (CL5741); assay type: cell-based; conditions: with imipenem 1 μg/ml; 95% inhibition of bacterial growth
Procedure, shortened: (§3)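 Colonies from overnight 35 °C blood-agar cultures were suspended in saline, diluted 1:100 into 1.1× CAMHB and exposed to test compound with or without imipenem at 1 μg/ml. After 22–24 h at 35 °C, absorbance was read to find the concentration restoring imipenem susceptibility.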

[7] = tested on: Escherichia coli expressing NDM-1 (CLB30005, CLB30016); assay type: cell-based; conditions: with imipenem 1 μg/ml; 95% inhibition of bacterial growth
Procedure, shortened: as §3

[8] = tested on: Klebsiella pneumoniae expressing VIM-1 (IHMA599644); assay type: cell-based; conditions: with imipenem 1 μg/ml; 95% inhibition of bacterial growth
Procedure, shortened: as §3

Compound | IC50 [1] [nM] | P. aeruginosa expressing IMP-1, efflux+ (MB9798) MITC95 [2] [µM] | Efflux ratio [2] | IC50 [3] [nM] | IC50 [4] [nM] | P. aeruginosa expressing IMP-1, efflux− (MB9799) MITC95 [5] [µM] | Serratia marcescens expressing IMP-1 (CL5741) MITC95 [6] [µM] | Escherichia coli expressing NDM-1 (CLB30016) MITC95 [7] [µM] | Klebsiella pneumoniae expressing VIM-1 (IHMA599644) MITC95 [8] [µM]
NS(=O)(=O)c1c(S(=O)(=O)C2CNC2)ccc(-c2cnc3ccccn23)c1-c1nn[nH]n1 [Example 9, 6-(Azetidin-3-ylsulfonyl)-3-(imidazo[1,2-a]pyridin-3-yl)-2-(2H-tetrazol-5-yl)benzenesulfonamide] | 0.375 | 6.25 | 4.00 | 0.332 | 0.913 | 1.563 | 1.563 | 0.7813 | 3.125
NS(=O)(=O)c1c(S(=O)(=O)C2CNC2)ccc(-c2cccc3sc(C(=O)O)nc23)c1-c1nnn[nH]1 [Example 68, 4-(4-(azetidin-3-ylsulfonyl)-3-sulfamoyl-2-(1H-tetrazol-5-yl)phenyl)benzo[d]thiazole-2-carboxylic Acid] | 0.256 | 6.25 | 2.00 | 0.0709 | 0.356 | 3.125 | 6.25 | 6.25 | 12.5
CCCS(=O)(=O)c1ccc(C2=CCC(N)CC2)c(-c2nnn[nH]2)c1S(N)(=O)=O (stereo not drawn) [Example 211, 4′-amino-4-(propylsulfonyl)-2-(1H-tetrazol-5-yl)-2′,3′,4′,5′-tetrahydro-[1,1′-biphenyl]-3-sulfonamide] | 0.785 | 50 | 31.99 | 24.3 | 6.32 | 1.563 | 6.25 | 12.5 | 25
CNc1nc2c(-c3ccc(S(=O)(=O)CCN)c(S(N)(=O)=O)c3-c3nn[nH]n3)cccc2s1 [Example 90, 6-(2-aminoethylsulfonyl)-3-(2-(methylamino)benzo[d]thiazol-4-yl)-2-(2H-tetrazol-5-yl)benzene sulfonamide] | 0.146 | 1.563 | 2.00 | 0.0746 | 0.0995 | 0.7813 | 1.563 | 0.7813 | 1.563
N=C(N)c1nc2c(-c3ccc(S(=O)(=O)C4CNC4)c(S(N)(=O)=O)c3-c3nnn[nH]3)cccc2s1 [Example 62, 4-(4-(Azetidin-3-ylsulfonyl)-3-sulfamoyl-2-(1H-tetrazol-5-yl)phenyl)benzo[d]thiazole-2-carboximidamide] | 0.396 | 1.563 | 2.00 | 0.345 | 2.63 | 0.7813 | 1.563 | 0.3906 | 1.563
Cn1cc2cc(-c3ccc(S(=O)(=O)CCN)c(S(N)(=O)=O)c3-c3nnn[nH]3)ccc2n1.O=C(O)C(F)(F)F [Example 153, 2-((4-(2-methyl-2H-indazol-5-yl)-2-sulfamoyl-3-(1H-tetrazol-5-yl)phenyl)sulfonyl)ethanaminium 2,2,2-trifluoroacetate] | 0.309 | 6.25 | 4.00 | 0.593 | 0.457 | 1.563 | 3.125 | 1.563 | 3.125
NS(=O)(=O)c1c(SC2CCNCC2)ccc(-c2ccc(C3CCNCC3)cc2)c1-c1nnn[nH]1 [Example 226, 4′-(piperidin-4-yl)-4-(piperidin-4-ylthio)-2-(1H-tetrazol-5-yl)-[1,1′-biphenyl]-3-sulfonamide] | 48.5 | 25 | 32.00 | 15.1 | 35.7 | 0.7813 | 3.125 | 1.563 | 6.25
Cn1ncc2c(-c3ccc(S(=O)(=O)C4CNC4)c(S(N)(=O)=O)c3-c3nnn[nH]3)cccc21.O=C(O)C(F)(F)F [Example 123, 3-((4-(1-methyl-1H-indazol-4-yl)-2-sulfamoyl-3-(1H-tetrazol-5-yl)phenyl)sulfonyl)azetidin-1-ium 2,2,2-trifluoroacetate] | 0.215 | 25 | 15.99 | 0.168 | 1.14 | 1.563 | 3.125 | 1.563 | 3.125
Nc1nc2ccc(-c3ccc(S(=O)(=O)C4CNC4)c(S(N)(=O)=O)c3-c3nn[nH]n3)cn2n1 [Example 215, 3-(2-amino-[1,2,4]triazolo[1,5-a]pyridin-6-yl)-6-(azetidin-3-ylsulfonyl)-2-(2H-tetrazol-5-yl)benzenesulfonamide] | 0.298 | 6.25 | 2.00 | 0.239 | 2.19 | 3.125 | 3.125 | 3.125 | 6.25
NS(=O)(=O)c1c(S(=O)(=O)C2CNC2)ccc(-c2cccnc2N2CCOCC2)c1-c1nn[nH]n1 [Example 220, 6-(azetidin-3-ylsulfonyl)-3-(2-morpholinopyridin-3-yl)-2-(2H-tetrazol-5-yl) benzenesulfonamide] | 0.337 | 100 | 32.00 | 0.901 | 14.9 | 3.125 | 12.5 | 6.25 | 12.5
Nc1nc2c(-c3ccc(S(=O)(=O)c4ccccn4)c(S(N)(=O)=O)c3-c3nnn[nH]3)cccc2s1 [Example 233, 3-(2-aminobenzo[d]thiazol-4-yl)-6-(pyridin-2-ylsulfonyl)-2-(1H-tetrazol-5-yl)benzenesulfonamide] | 0.113 | 12.5 | 8.00 | 0.0324 | 0.203 | 1.563 | 3.125 | 3.125 | 12.5
